# According to patent US20250304644A1, “PEPTIDES TRIPLE AGONISTS OF GIP, GLP-1 AND GLP-2” (BAINAN BIOTECH APS, priority 2021, published 2025):
# Where two headings read alike, the source gives them in different places. Where a SMILES comes first, the peptide text is derived from it. [ ]: non-standard residue; d: D form. The star is where a group is joined. Decanoyl = CCCCCCCCCC(=O)*; Aib = CC(C)(N)C(=O)O
# Experiments:
# Format in all cases: cell-based
# human GIPR = molecular target: T1, human GIPR (Homo sapiens, UniProt P48546); experiment: cAMP assay (HitHunter) in transiently transfected COS-7 cells expressing human GIPR; conditions: for Emax: COS-7, normalized to highest concentration of the endogenous ligand, read-out: Efficacy GIPR (Emax)
# T1 construct: host or cells: COS-7
# T1 sequence (P48546 22-466): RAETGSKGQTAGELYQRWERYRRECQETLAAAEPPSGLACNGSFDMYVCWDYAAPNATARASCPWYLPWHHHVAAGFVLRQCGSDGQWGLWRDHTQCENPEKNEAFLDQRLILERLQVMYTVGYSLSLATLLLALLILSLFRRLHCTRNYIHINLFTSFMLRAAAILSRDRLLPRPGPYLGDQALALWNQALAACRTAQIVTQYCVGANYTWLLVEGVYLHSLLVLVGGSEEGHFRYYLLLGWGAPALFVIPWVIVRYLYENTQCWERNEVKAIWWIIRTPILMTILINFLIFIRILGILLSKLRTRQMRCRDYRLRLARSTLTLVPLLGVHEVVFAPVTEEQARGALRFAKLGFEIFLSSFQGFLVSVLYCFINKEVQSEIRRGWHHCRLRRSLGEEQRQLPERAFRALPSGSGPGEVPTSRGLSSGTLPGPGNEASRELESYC
# Procedure: (§1) The next day the assay was initiated by washing with HEPES buffered saline (HBS) and followed by an incubation step with assay buffer (HBS added 1 mM isobutyl-1-methylxanthine (IBMX)) for 30 min at 37° C. The ligands were then added and incubated for an additional 30 min at 37° C. After ligand incubation, the HitHunter® CAMP assay (Eurofins DiscoverX, Fremont, […] USA) was carried out according to the manufacturer's instructions. […] The potencies (EC50 values) were determined by nonlinear regression using GraphPad Prism 9 (San Diego, California, USA). Sigmoid curves were fitted logistically. The efficacies (Emax values) were determined by normalization to the highest concentration applied of the endogenous ligand for each receptor.
# human GLP-2R = molecular target: T2, human GLP-2R (Homo sapiens, UniProt O95838); experiment: cAMP assay (HitHunter) in transiently transfected COS-7 cells expressing human GLP-2R; conditions: for Emax: COS-7, normalized to highest concentration of the endogenous ligand, read-out: Efficacy GLP-2R (Emax)
# T2 construct: host or cells: COS-7
# T2 sequence (O95838 1-553): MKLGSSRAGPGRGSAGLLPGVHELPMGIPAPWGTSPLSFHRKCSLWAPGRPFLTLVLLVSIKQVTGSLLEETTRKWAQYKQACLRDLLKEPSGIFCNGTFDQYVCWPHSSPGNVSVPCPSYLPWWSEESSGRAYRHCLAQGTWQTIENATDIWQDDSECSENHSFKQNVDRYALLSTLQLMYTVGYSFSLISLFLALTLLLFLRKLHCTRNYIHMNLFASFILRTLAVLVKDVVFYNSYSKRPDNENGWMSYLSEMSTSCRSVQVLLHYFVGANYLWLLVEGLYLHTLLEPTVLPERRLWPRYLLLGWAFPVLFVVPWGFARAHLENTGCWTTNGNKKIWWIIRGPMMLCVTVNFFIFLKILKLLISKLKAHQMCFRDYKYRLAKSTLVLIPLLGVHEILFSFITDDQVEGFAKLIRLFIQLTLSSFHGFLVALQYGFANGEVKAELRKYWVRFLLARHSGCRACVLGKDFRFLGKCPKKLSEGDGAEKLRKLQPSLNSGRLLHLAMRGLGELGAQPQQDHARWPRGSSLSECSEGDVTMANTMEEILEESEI
# Procedure: as §1
# human GLP-1R = molecular target: T3, human GLP-1R (Homo sapiens, UniProt P43220); experiment: cAMP assay (HitHunter) in transiently transfected COS-7 cells expressing human GLP-1R; conditions: for Emax: COS-7, normalized to highest concentration of the endogenous ligand, read-out: Efficacy GLP-1R (Emax)
# T3 construct: host or cells: COS-7
# T3 sequence (P43220 24-463): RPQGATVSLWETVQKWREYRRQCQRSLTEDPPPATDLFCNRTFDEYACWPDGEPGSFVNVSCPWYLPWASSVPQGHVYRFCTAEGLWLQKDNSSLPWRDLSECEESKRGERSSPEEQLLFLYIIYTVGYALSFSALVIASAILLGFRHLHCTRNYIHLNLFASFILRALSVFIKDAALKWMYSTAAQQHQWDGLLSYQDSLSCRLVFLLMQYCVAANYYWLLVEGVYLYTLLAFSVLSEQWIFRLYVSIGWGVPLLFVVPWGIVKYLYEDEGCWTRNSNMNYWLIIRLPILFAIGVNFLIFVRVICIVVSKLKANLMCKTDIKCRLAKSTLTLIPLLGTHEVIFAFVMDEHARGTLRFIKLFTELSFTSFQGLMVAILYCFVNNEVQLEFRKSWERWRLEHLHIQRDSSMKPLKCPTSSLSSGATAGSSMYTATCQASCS
# Procedure: as §1
# [1] = cAMP, COS-7 cells, human GLP-2R, read-out: EC50 (nM) GLP-2R
SMILES,Emax (human GIPR) [%],Emax (human GLP-2R) [%],EC50 (human GLP-2R; [1]) [nM],Emax (human GLP-1R) [%],"EC50 (human GLP-1R; cAMP, COS-7 cells, human GLP-1R, read-out: EC50 (nM) GLP-1R) [nM]","EC50 (human GIPR; cAMP, COS-7 cells, human GIPR) [nM]",EC50 (human GLP-2R) [nM],EC50 (human GLP-1R) [nM]
CCCCCCCCCC(=O)NCCCC[C@H](NC(=O)[C@@H](NC(=O)[C@@H](NC(=O)[C@H](CCCCN)NC(=O)[C@@H](NC(=O)[C@H](CCC(N)=O)NC(=O)[C@@H](NC(=O)[C@H](CC(C)C)NC(=O)[C@H](Cc1c[nH]c2ccccc12)NC(=O)[C@H](CC(N)=O)NC(=O)[C@@H](NC(=O)[C@H](Cc1ccccc1)NC(=O)[C@H](CC(=O)O)NC(=O)[C@H](CCCNC(=N)N)NC(=O)[C@H](C)NC(=O)[C@H](C)NC(=O)[C@H](CC(C)C)NC(=O)[C@H](CC(N)=O)NC(=O)[C@H](CC(=O)O)NC(=O)[C@H](CC(C)C)NC(=O)[C@@H](NC(=O)[C@@H](NC(=O)[C@H](CO)NC(=O)[C@H](Cc1ccc(O)cc1)NC(=O)[C@H](CC(=O)O)NC(=O)[C@H](CO)NC(=O)[C@@H](NC(=O)[C@H](Cc1ccccc1)NC(=O)[C@@H](NC(=O)CNC(=O)[C@H](CC(=O)O)NC(=O)C(C)(C)NC(=O)[C@@H](N)Cc1c[nH]cn1)[C@@H](C)O)[C@@H](C)CC)[C@@H](C)CC)[C@@H](C)CC)[C@@H](C)CC)[C@@H](C)CC)[C@@H](C)O)[C@@H](C)CC)[C@@H](C)O)C(N)=O [Compound 10] (H-H[Aib]DGTFISDYSIILDNLAARDFINWLIQTKITK(Decanoyl)-NH2),127,103,–,99,–,–,11.2,3.98
CCCCCCCCCC(=O)NCCCC[C@H](NC(=O)[C@@H](NC(=O)[C@@H](NC(=O)[C@H](CCCCN)NC(=O)[C@@H](NC(=O)[C@H](CCC(N)=O)NC(=O)[C@@H](NC(=O)[C@H](CC(C)C)NC(=O)[C@H](Cc1c[nH]c2ccccc12)NC(=O)[C@H](CC(N)=O)NC(=O)[C@@H](NC(=O)[C@H](Cc1ccccc1)NC(=O)[C@H](CC(=O)O)NC(=O)[C@H](CCCNC(=N)N)NC(=O)[C@H](C)NC(=O)[C@H](C)NC(=O)[C@H](CC(C)C)NC(=O)[C@H](CC(N)=O)NC(=O)[C@H](CC(=O)O)NC(=O)[C@H](CC(C)C)NC(=O)[C@@H](NC(=O)[C@@H](NC(=O)[C@H](CO)NC(=O)[C@H](Cc1ccc(O)cc1)NC(=O)[C@H](CC(=O)O)NC(=O)[C@H](CO)NC(=O)[C@@H](NC(=O)[C@H](Cc1ccccc1)NC(=O)[C@@H](NC(=O)CNC(=O)[C@H](CCC(=O)O)NC(=O)C(C)(C)NC(=O)[C@@H](N)Cc1c[nH]cn1)[C@@H](C)O)[C@@H](C)CC)[C@@H](C)O)[C@@H](C)CC)[C@@H](C)CC)[C@@H](C)CC)[C@@H](C)O)[C@@H](C)CC)[C@@H](C)O)C(N)=O [Compound 11] (H-H[Aib]EGTFISDYSTILDNLAARDFINWLIQTKITK(Decanoyl)-NH2),89,68,25.1,76,–,–,–,–
CCCCCCCCCC(=O)NCCCC[C@H](NC(=O)[C@@H](NC(=O)[C@@H](NC(=O)[C@H](CCCCN)NC(=O)[C@@H](NC(=O)[C@H](CCC(N)=O)NC(=O)[C@@H](NC(=O)[C@H](CC(C)C)NC(=O)[C@H](Cc1c[nH]c2ccccc12)NC(=O)[C@H](CC(N)=O)NC(=O)[C@@H](NC(=O)[C@H](Cc1ccccc1)NC(=O)[C@H](CC(=O)O)NC(=O)[C@H](CCCNC(=N)N)NC(=O)[C@H](C)NC(=O)[C@H](C)NC(=O)[C@H](CC(C)C)NC(=O)[C@H](CC(N)=O)NC(=O)[C@H](CC(=O)O)NC(=O)[C@H](CC(C)C)NC(=O)[C@H](CCC(=O)O)NC(=O)[C@@H](NC(=O)[C@H](CO)NC(=O)[C@H](Cc1ccc(O)cc1)NC(=O)[C@H](CC(=O)O)NC(=O)[C@H](CO)NC(=O)[C@@H](NC(=O)[C@H](Cc1ccccc1)NC(=O)[C@@H](NC(=O)CNC(=O)[C@H](CC(=O)O)NC(=O)C(C)(C)NC(=O)[C@@H](N)Cc1c[nH]cn1)[C@@H](C)O)[C@@H](C)CC)[C@@H](C)O)[C@@H](C)CC)[C@@H](C)CC)[C@@H](C)O)[C@@H](C)CC)[C@@H](C)O)C(N)=O [Compound 13] (H-H[Aib]DGTFISDYSTELDNLAARDFINWLIQTKITK(Decanoyl)-NH2),117,86,25.1,85,25.1,–,–,–
CCCCCCCCCC(=O)NCCCC[C@H](NC(=O)[C@H](CCCCN)NC(=O)CNC(=O)[C@H](CCCCN)NC(=O)[C@@H](NC(=O)[C@H](CCC(N)=O)NC(=O)[C@@H](NC(=O)[C@H](CC(C)C)NC(=O)[C@H](Cc1c[nH]c2ccccc12)NC(=O)[C@H](CC(N)=O)NC(=O)[C@@H](NC(=O)[C@H](Cc1ccccc1)NC(=O)[C@H](CC(=O)O)NC(=O)[C@H](CCCNC(=N)N)NC(=O)[C@H](C)NC(=O)[C@H](C)NC(=O)[C@H](CC(C)C)NC(=O)[C@H](CC(N)=O)NC(=O)[C@H](CC(=O)O)NC(=O)[C@H](CC(C)C)NC(=O)[C@@H](NC(=O)[C@@H](NC(=O)[C@H](CO)NC(=O)[C@H](Cc1ccc(O)cc1)NC(=O)[C@H](CC(=O)O)NC(=O)[C@H](CO)NC(=O)[C@@H](NC(=O)[C@H](Cc1ccccc1)NC(=O)[C@@H](NC(=O)CNC(=O)[C@H](CC(=O)O)NC(=O)C(C)(C)NC(=O)[C@@H](N)Cc1c[nH]cn1)[C@@H](C)O)[C@@H](C)CC)[C@@H](C)O)[C@@H](C)CC)[C@@H](C)CC)[C@@H](C)CC)[C@@H](C)O)C(N)=O [Compound 14] (H-H[Aib]DGTFISDYSTILDNLAARDFINWLIQTKGKK(Decanoyl)-NH2),91,92,–,96,–,–,–,–

# The next lines start with results.
Emax (human GIPR) [%],Emax (human GLP-2R) [%],EC50 (human GLP-2R; [1]) [nM],Emax (human GLP-1R) [%],"EC50 (human GLP-1R; cAMP, COS-7 cells, human GLP-1R, read-out: EC50 (nM) GLP-1R) [nM]","EC50 (human GIPR; cAMP, COS-7 cells, human GIPR) [nM]",SMILES,EC50 (human GLP-2R) [nM],EC50 (human GLP-1R) [nM]
104,108,11.2,105,–,–,CCCCCCCCCC(=O)NCCCC[C@H](NC(=O)[C@@H](NC(=O)[C@@H](NC(=O)[C@H](CCCCN)NC(=O)[C@@H](NC(=O)[C@H](CCC(N)=O)NC(=O)[C@@H](NC(=O)[C@H](CC(C)C)NC(=O)[C@H](Cc1c[nH]c2ccccc12)NC(=O)[C@H](CCC(=O)O)NC(=O)[C@@H](NC(=O)[C@H](Cc1ccccc1)NC(=O)[C@H](CC(=O)O)NC(=O)[C@H](CCCNC(=N)N)NC(=O)[C@H](C)NC(=O)[C@H](C)NC(=O)[C@H](CC(C)C)NC(=O)[C@H](CC(N)=O)NC(=O)[C@H](CC(=O)O)NC(=O)[C@H](CC(C)C)NC(=O)[C@@H](NC(=O)[C@@H](NC(=O)[C@H](CO)NC(=O)[C@H](Cc1ccc(O)cc1)NC(=O)[C@H](CC(=O)O)NC(=O)[C@H](CO)NC(=O)[C@@H](NC(=O)[C@H](Cc1ccccc1)NC(=O)[C@@H](NC(=O)CNC(=O)[C@H](CC(=O)O)NC(=O)C(C)(C)NC(=O)[C@@H](N)Cc1c[nH]cn1)[C@@H](C)O)[C@@H](C)CC)[C@@H](C)O)[C@@H](C)CC)[C@@H](C)CC)[C@@H](C)CC)[C@@H](C)O)[C@@H](C)CC)[C@@H](C)O)C(N)=O [Compound 9],–,–
99,93,–,59,–,1,CCCCCCCCCC(=O)NCCCC[C@H](NC(=O)[C@@H](NC(=O)[C@@H](NC(=O)[C@H](CCCCN)NC(=O)[C@@H](NC(=O)[C@H](CCC(N)=O)NC(=O)[C@@H](NC(=O)[C@H](CC(C)C)NC(=O)[C@H](Cc1c[nH]c2ccccc12)NC(=O)[C@H](CC(N)=O)NC(=O)[C@@H](NC(=O)[C@H](Cc1ccccc1)NC(=O)[C@H](CC(=O)O)NC(=O)[C@H](CCCNC(=N)N)NC(=O)[C@H](C)NC(=O)[C@H](C)NC(=O)[C@H](CC(C)C)NC(=O)[C@H](CC(N)=O)NC(=O)[C@H](CC(=O)O)NC(=O)[C@H](CC(C)C)NC(=O)[C@@H](NC(=O)[C@@H](NC(=O)[C@H](CO)NC(=O)[C@H](Cc1ccc(O)cc1)NC(=O)[C@H](CC(=O)O)NC(=O)[C@H](CO)NC(=O)[C@@H](NC(=O)[C@H](Cc1ccccc1)NC(=O)[C@@H](NC(=O)CNC(=O)[C@H](CC(=O)O)NC(=O)C(C)(C)NC(=O)[C@@H](N)Cc1ccc(O)cc1)[C@@H](C)O)[C@@H](C)CC)[C@@H](C)O)[C@@H](C)CC)[C@@H](C)CC)[C@@H](C)CC)[C@@H](C)O)[C@@H](C)CC)[C@@H](C)O)C(N)=O [Compound 16] (H-Y[Aib]DGTFISDYSTILDNLAARDFINWLIQTKITK(Decanoyl)-NH2; N-terminus assumed),–,–
